# Reference: article PMC6770071, “XIAP as a Target of New Small Organic Natural Molecules Inducing Human Cancer Cell Death” (Cancers, 2019)
smiles,measurement,value
"CCCCCCCC/C=C/CCc1cc(O)c(O)cc1O [Eriopodol C, (E)-5-(dodec-3′-enyl)benzene-1,2,4-triol]",melting point,138.5 °C
